Experimental data: publication PMC5423977, “Safety, pharmacokinetics, and pharmacodynamics of BMS-986142, a novel reversible BTK inhibitor, in healthy participants” (European Journal of Clinical Pharmacology, 2017)

What was measured:
[1] = Safety and tolerability (adverse events), Study 1 MAD in healthy participants; assay type: in vivo, human
[2] = rats, 1-month GLP toxicology study; cited from earlier work
[3] = 12-lead ECG, baseline-corrected QTcF; assay type: in vivo, human; conditions: for Maximum change from baseline in QTcF interval >30-≤60 msec / Maximum change from baseline in QTcF interval >60 msec / Maximum change from baseline in QTcF interval ≤30 msec: n = 6
Procedure: Participants were monitored for adverse events (AEs) throughout the study. Clinical laboratory tests, vital sign measurements, 12-lead ECGs, and physical examinations were performed at selected times throughout the dosing interval. Safety data was recorded in the participants’ medical records, and assessments were performed for emergent AEs or serious AEs (SAEs). For all AEs, causal relationship to the study drug was determined by an investigator. QT signals obtained from 12-lead ECGs were corrected by heart rate using Fridericia’s formula (QTcF). Baseline-corrected QTcF (∆QTcF) were evaluated to determine QT elongation.

[4] = Study 1 MAD group, BMS-986142-treated
[5] = Study 1 MAD, all BMS-986142 doses, n = 24

Cc1c(-c2c(F)cc(C(N)=O)c3[nH]c4c(c23)CC[C@H](C(C)(C)O)C4)cccc1-n1c(=O)c2cccc(F)c2n(C)c1=O [BMS-986142, 6-fluoro-5-(R)-(3-(S)-(8-fluoro-1-methyl-2,4-dioxo-1,2-dihydroquinazolin-3(4H)-yl)-2-methylphenyl)-2-(S)-(2-hydroxypropan-2-yl)-2,3,4,9-tetrahydro-1H-carbazole-8-carboxamide]
AE SOC: Nervous system disorders ([1]; MAD 350 mg QD, n = 6): 0 n (%)
AE SOC: Psychiatric disorders ([1]; MAD 350 mg QD, n = 6): 0 n (%)
AE SOC: Respiratory, thoracic and mediastinal disorders ([1]; MAD 350 mg QD, n = 6): 0 n (%)
AE SOC: Skin and subcutaneous tissue disorders ([1]; MAD 350 mg QD, n = 6): 1 (16.7) n (%)
AE: Abdominal pain ([1]; MAD 350 mg QD, n = 6): 0 n (%)
AE: Back pain ([1]; MAD 350 mg QD, n = 6): 0 n (%)
AE: Blood creatinine phosphokinase increased ([1]; MAD 350 mg QD, n = 6): 0 n (%)
AE: Cerumen impaction ([1]; MAD 350 mg QD, n = 6): 0 n (%)
AE: Cough ([1]; MAD 350 mg QD, n = 6): 0 n (%)
AE: Diarrhoea ([1]; MAD 350 mg QD, n = 6): 0 n (%)
AE: Eye pain ([1]; MAD 350 mg QD, n = 6): 0 n (%)
AE: Haemoptysis ([1]; MAD 350 mg QD, n = 6): 0 n (%)
AE: Headache ([1]; MAD 350 mg QD, n = 6): 0 n (%)
AE: Psychotic disorder ([1]; MAD 350 mg QD, n = 6): 0 n (%)
AE: Rash ([1]; MAD 350 mg QD, n = 6): 1 (16.7) n (%)
AE: Somnolence ([1]; MAD 350 mg QD, n = 6): 0 n (%)
AE: Syncope ([1]; MAD 350 mg QD, n = 6): 0 n (%)
AE: Thermal burn ([1]; MAD 350 mg QD, n = 6): 0 n (%)
AE: Throat irritation ([1]; MAD 350 mg QD, n = 6): 0 n (%)
AE: Upper respiratory tract infection ([1]; MAD 350 mg QD, n = 6): 0 n (%)
Total subjects with an event ([1]; MAD 350 mg QD, n = 6): 1 (16.7) n (%)
AE SOC: Ear and labyrinth disorders ([1]; MAD any dose, n = 24): 1 (4.2) n (%)
AE SOC: Eye disorders ([1]; MAD any dose, n = 24): 1 (4.2) n (%)
AE SOC: Gastrointestinal Disorders ([1]; MAD any dose, n = 24): 2 (8.3) n (%)
AE SOC: Infections and infestations ([1]; MAD any dose, n = 24): 1 (4.2) n (%)
AE SOC: Injury, poisoning and procedural complications ([1]; MAD any dose, n = 24): 1 (4.2) n (%)
AE SOC: Investigations ([1]; MAD any dose, n = 24): 0 n (%)
AE SOC: Musculoskeletal and connective tissue disorders ([1]; MAD any dose, n = 24): 1 (4.2) n (%)
AE SOC: Nervous system disorders ([1]; MAD any dose, n = 24): 1 (4.2) n (%)
AE SOC: Psychiatric disorders ([1]; MAD any dose, n = 24): 1 (4.2) n (%)
AE SOC: Respiratory, thoracic and mediastinal disorders ([1]; MAD any dose, n = 24): 2 (8.3) n (%)
AE SOC: Skin and subcutaneous tissue disorders ([1]; MAD any dose, n = 24): 1 (4.2) n (%)
AE: Abdominal pain ([1]; MAD any dose, n = 24): 1 (4.2) n (%)
AE: Back pain ([1]; MAD any dose, n = 24): 1 (4.2) n (%)
AE: Blood creatinine phosphokinase increased ([1]; MAD any dose, n = 24): 0 n (%)
AE: Cerumen impaction ([1]; MAD any dose, n = 24): 1 (4.2) n (%)
AE: Cough ([1]; MAD any dose, n = 24): 1 (4.2) n (%)
AE: Diarrhoea ([1]; MAD any dose, n = 24): 1 (4.2) n (%)
AE: Eye pain ([1]; MAD any dose, n = 24): 1 (4.2) n (%)
AE: Haemoptysis ([1]; MAD any dose, n = 24): 1 (4.2) n (%)
AE: Headache ([1]; MAD any dose, n = 24): 1 (4.2) n (%)
AE: Psychotic disorder ([1]; MAD any dose, n = 24): 1 (4.2) n (%)
AE: Rash ([1]; MAD any dose, n = 24): 1 (4.2) n (%)
AE: Somnolence ([1]; MAD any dose, n = 24): 0 n (%)
AE: Syncope ([1]; MAD any dose, n = 24): 0 n (%)
AE: Thermal burn ([1]; MAD any dose, n = 24): 1 (4.2) n (%)
AE: Throat irritation ([1]; MAD any dose, n = 24): 1 (4.2) n (%)
AE: Upper respiratory tract infection ([1]; MAD any dose, n = 24): 1 (4.2) n (%)
Total subjects with an event ([1]; MAD any dose, n = 24): 8 (33.3) n (%)
Number of AEs reported [1, 4]: 13 AEs
Participants with AEs [1, 4]: 8 participants
AE: Cough [1, 5]: 1 (4.2) n (%)
AE: Diarrhea [1, 5]: 1 (4.2) n (%)
AE: Dizziness [1, 5]: 0 n (%)
AE: Headache/tension headache [1, 5]: 1 (4.2) n (%)
AE: Nausea [1, 5]: 0 n (%)
AE: Thermal burns [1, 5]: 1 (4.2) n (%)
AE: Upper respiratory tract infection [1, 5]: 1 (4.2) n (%)
Subjects with AEs [1, 5]: 8 (33.3) n (%)
Steady-state exposure (AUC) at NOAEL [2]: 22,920 ng h/mL
Maximum change from baseline in QTcF interval >30-≤60 msec ([3]; MAD 25 mg): 0 N (%)
Maximum change from baseline in QTcF interval >60 msec ([3]; MAD 25 mg): 0 N (%)
Maximum change from baseline in QTcF interval ≤30 msec ([3]; MAD 25 mg): 6 (100) N (%)
Maximum change from baseline in QTcF interval >30-≤60 msec ([3]; MAD 75 mg): 0 N (%)
Maximum change from baseline in QTcF interval >60 msec ([3]; MAD 75 mg): 0 N (%)
Maximum change from baseline in QTcF interval ≤30 msec ([3]; MAD 75 mg): 6 (100) N (%)
Maximum change from baseline in QTcF interval >30-≤60 msec ([3]; MAD 200 mg): 0 N (%)
Maximum change from baseline in QTcF interval >60 msec ([3]; MAD 200 mg): 0 N (%)
Maximum change from baseline in QTcF interval ≤30 msec ([3]; MAD 200 mg): 6 (100) N (%)
Maximum change from baseline in QTcF interval >30-≤60 msec ([3]; MAD 350 mg): 0 N (%)
Maximum change from baseline in QTcF interval >60 msec ([3]; MAD 350 mg): 0 N (%)
Maximum change from baseline in QTcF interval ≤30 msec ([3]; MAD 350 mg): 6 (100) N (%)
Maximum change from baseline in QTcF interval >30-≤60 msec ([3]; SAD 5 mg): 0 N (%)
Maximum change from baseline in QTcF interval >60 msec ([3]; SAD 5 mg): 0 N (%)
Maximum change from baseline in QTcF interval ≤30 msec ([3]; SAD 5 mg): 6 (100) N (%)
Maximum change from baseline in QTcF interval >30-≤60 msec ([3]; SAD 15 mg): 0 N (%)
Maximum change from baseline in QTcF interval >60 msec ([3]; SAD 15 mg): 0 N (%)
Maximum change from baseline in QTcF interval ≤30 msec ([3]; SAD 15 mg): 6 (100) N (%)
Maximum change from baseline in QTcF interval >30-≤60 msec ([3]; SAD 50 mg): 0 N (%)
Maximum change from baseline in QTcF interval >60 msec ([3]; SAD 50 mg): 0 N (%)
Maximum change from baseline in QTcF interval ≤30 msec ([3]; SAD 50 mg): 6 (100) N (%)
Maximum change from baseline in QTcF interval >30-≤60 msec ([3]; SAD 100 mg): 0 N (%)
Maximum change from baseline in QTcF interval >60 msec ([3]; SAD 100 mg): 0 N (%)
Maximum change from baseline in QTcF interval ≤30 msec ([3]; SAD 100 mg): 6 (100) N (%)
Maximum change from baseline in QTcF interval >30-≤60 msec ([3]; SAD 300 mg): 0 N (%)
Maximum change from baseline in QTcF interval >60 msec ([3]; SAD 300 mg): 0 N (%)
Maximum change from baseline in QTcF interval ≤30 msec ([3]; SAD 300 mg): 6 (100) N (%)
Maximum change from baseline in QTcF interval >30-≤60 msec ([3]; SAD 900 mg): 0 N (%)
Maximum change from baseline in QTcF interval >60 msec ([3]; SAD 900 mg): 0 N (%)
Maximum change from baseline in QTcF interval ≤30 msec ([3]; SAD 900 mg): 6 (100) N (%)
Increase from baseline in maximum post-dose QTcF ([3]; SAD and MAD): No participants showed greater than 30 ms increase from baseline
